{
  "source": "paper PMC8857278",
  "about": "“Incomplete tricarboxylic acid cycle and proton gradient in Pandoravirus massiliensis: is it still a virus?” (The ISME Journal, 2021)",
  "key": {"ORF132": {"system": "T1, ORF132", "T1 construct": "full-length ORF, 146 residues; N-terminal Strep-tag, codon-optimised synthetic gene in pET22b(+); E. coli BL21(DE3); StrepTrap purified", "experiment": "isocitrate dehydrogenase activity assay kit, absorbance […] nm, NADH standard curve, Michaelis-Menten fit", "type": "biochemical, Pandoravirus massiliensis", "details": "37 °C, 100 µL, kit buffer; NAD+ or NADP+ co-substrate not specified; varied substrate implied to be isocitrate"}, "human IDH": {"system": "T2, human IDH", "T2 construct": "gene IDH1", "details": "37 °C, 100 µL, kit buffer; NAD+ or NADP+ co-substrate not specified; varied substrate implied to be isocitrate"}},
  "data": [
    {"smiles": "O=C(O)C[C@H](C(=O)O)[C@@H](O)C(=O)O", "note": "[isocitrate]", "values": [
      {"measurement": "Km", "setting": "ORF132", "result": 51.8, "unit": "µM"},
      {"measurement": "Km", "setting": "human IDH", "result": 585, "unit": "µM"}
    ]}
  ]
}
